Source: the NIST ThermoML archive (doi:10.1021/je800831d)

How the values were obtained:
[1] = xn = mol fraction of the nth substance listed; conditions: 101 kPa, Liquid
[2] = 101 kPa, Liquid

CCCO [propan-1-ol] + C1CCCC1
[1], x2 = 0
Conditions	mass density [kg/m3]
298.15 K	799.813
308.15 K	791.692

C1CCCC1 [cyclopentane] + CCCCCCCO
mass density [kg/m3], [1]
Conditions	298.15 K	308.15 K
x1 = 0.0632	815.837	808.629
x1 = 0.1965	808.334	800.856
x1 = 0.3173	800.287	792.895
x1 = 0.4244	793.064	785.675
x1 = 0.4606	790.282	782.889
x1 = 0.5084	786.531	779.091
x1 = 0.6664	772.628	764.753
x1 = 0.7675	762.185	754.805
x1 = 0.8534	752.769	745.466
x1 = 0.9644	739.018	731.663
x1 = 1	733.634	726.571

CCCO [propan-1-ol]
[2]
Conditions	mass density [kg/m3]
298.15 K	799.813
308.15 K	791.692

C1CCCC1 [cyclopentane] + CCCCCO
mass density [kg/m3], [1]
Conditions	298.15 K	308.15 K
x1 = 0.0155	810.22	802.763
x1 = 0.1886	799.34	791.417
x1 = 0.2742	793.439	785.673
x1 = 0.3746	786.395	778.336
x1 = 0.3884	785.467	777.389
x1 = 0.4798	779.082	770.553
x1 = 0.5738	771.559	763.458
x1 = 0.6868	762.096	754.298
x1 = 0.7543	756.486	748.638
x1 = 0.8131	751.07	743.306
x1 = 0.9079	742.377	735.151
x1 = 1	733.634	726.571

CCCCCCCO [heptan-1-ol] + C1CCCC1
[1], x2 = 0
Conditions	mass density [kg/m3]
298.15 K	818.813
308.15 K	811.73

CCCCCCCO [heptan-1-ol]
[2]
Conditions	mass density [kg/m3]
298.15 K	818.813
308.15 K	811.73

C1CCCC1 [cyclopentane]
[2]
Conditions	mass density [kg/m3]
298.15 K	733.634
308.15 K	726.571

CCCCCO [pentan-1-ol]
[2]
Conditions	mass density [kg/m3]
298.15 K	811.037
308.15 K	803.683

CCCCCO [pentan-1-ol] + C1CCCC1
[1], x2 = 0
Conditions	mass density [kg/m3]
298.15 K	811.037
308.15 K	803.683

C1CCCC1 [cyclopentane] + CCCO
mass density [kg/m3], [1]
Conditions	298.15 K	308.15 K
x1 = 0.0553	795.275	786.98
x1 = 0.1627	786.754	778.045
x1 = 0.2341	781.37	772.538
x1 = 0.3137	775.778	766.718
x1 = 0.4691	764.862	755.363
x1 = 0.5666	758.623	748.897
x1 = 0.6338	754.486	744.566
x1 = 0.7688	746.451	737.144
x1 = 0.8446	742.132	733.21
x1 = 0.9167	738.181	729.51
x1 = 1	733.634	726.571
